Measurements published in paper PMC10839021, “Pharmacological effects of monoterpene carveol on the neuromuscular system of nematodes and mammals” (Frontiers in Pharmacology, 2024).

Target: T1, A. suum ACR-16 nAChR (Asu-ACR-16, homomeric nicotinic acetylcholine receptor) (Ascaris suum, UniProt A0A0K0QSL7)
T1 construct: homomeric receptor expressed from Asu-ACR-16 cRNA in Xenopus laevis oocytes
Assay: two-electrode voltage-clamp in Xenopus oocytes, agonist concentration-response
Type: cell-based

T1 sequence (A0A0K0QSL7 entry or part of it): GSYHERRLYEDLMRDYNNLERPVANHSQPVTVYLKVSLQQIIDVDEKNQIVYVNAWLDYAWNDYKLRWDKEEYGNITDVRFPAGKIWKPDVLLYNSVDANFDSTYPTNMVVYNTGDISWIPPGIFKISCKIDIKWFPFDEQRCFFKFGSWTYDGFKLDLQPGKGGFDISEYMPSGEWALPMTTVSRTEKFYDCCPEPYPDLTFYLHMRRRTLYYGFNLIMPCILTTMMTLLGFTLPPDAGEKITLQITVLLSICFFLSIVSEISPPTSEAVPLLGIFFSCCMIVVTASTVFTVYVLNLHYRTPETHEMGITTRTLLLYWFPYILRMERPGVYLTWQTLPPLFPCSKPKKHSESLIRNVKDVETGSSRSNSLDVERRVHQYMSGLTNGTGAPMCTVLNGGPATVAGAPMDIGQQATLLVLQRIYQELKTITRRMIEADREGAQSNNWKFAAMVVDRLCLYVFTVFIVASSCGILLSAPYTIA

In the case of CC(=O)OCC[N+](C)(C)C [acetylcholine], the EC50 is reported as 4.9 ± 1.2 µM.
